From the NIST ThermoML archive (doi:10.1016/j.fluid.2017.09.019)

Assay: wn = mass fraction of the nth substance listed
Settings: 101 kPa, Liquid; for viscosity: Concentric cylinders viscometry; for mass density: Vibrating tube method

CC(O)CN(C)C (stereo not given) [1-(dimethylamino)-2-propanol] + O
Settings	mass density [kg/m3]	viscosity [mPa·s]
298.15 K, w1 = 0.2	988.2	2.407
298.15 K, w1 = 0.25	986.5	2.995
298.15 K, w1 = 0.3	984.4	3.886
298.15 K, w1 = 0.35	979.5	4.735
298.15 K, w1 = 0.4	976.4	5.67
298.15 K, w1 = 0.45	970.3	6.602
298.15 K, w1 = 0.5	966.2	7.632
298.15 K, w1 = 0.6	949.4	8.956
298.15 K, w1 = 0.7	930.9	9.925
298.15 K, w1 = 0.8	908.8	8.482
298.15 K, w1 = 0.9	879.8	5.585
298.15 K, w1 = 0.95	863.9	3.79
298.15 K, w1 = 0.96	858.1	3.282
298.15 K, w1 = 0.98	852.4	2.094
298.15 K, w1 = 1	845.4	1.332
303.15 K, w1 = 0.2	985.7	2.018
303.15 K, w1 = 0.25	983.5	2.51
303.15 K, w1 = 0.3	981	3.097
303.15 K, w1 = 0.35	976.1	3.805
303.15 K, w1 = 0.4	972.1	4.54
303.15 K, w1 = 0.45	966.4	5.187
303.15 K, w1 = 0.5	962.1	5.965
303.15 K, w1 = 0.6	944.6	6.964
303.15 K, w1 = 0.7	925.3	7.654
303.15 K, w1 = 0.8	903.5	6.762
303.15 K, w1 = 0.9	875	4.935
303.15 K, w1 = 0.95	858.9	3.199
303.15 K, w1 = 0.96	853.1	2.783
303.15 K, w1 = 0.98	847.3	1.875
303.15 K, w1 = 1	840.3	1.183
308.15 K, w1 = 0.2	983	1.738
308.15 K, w1 = 0.25	980.6	2.115
308.15 K, w1 = 0.3	977.8	2.559
308.15 K, w1 = 0.35	972.4	3.115
308.15 K, w1 = 0.4	968.3	3.647
308.15 K, w1 = 0.45	961.8	4.156
308.15 K, w1 = 0.5	957.7	4.75
308.15 K, w1 = 0.6	940	5.487
308.15 K, w1 = 0.7	919.8	6.02
308.15 K, w1 = 0.8	899.1	5.106
308.15 K, w1 = 0.9	870.1	3.396
308.15 K, w1 = 0.95	854.1	2.463
308.15 K, w1 = 0.96	848.4	2.211
308.15 K, w1 = 0.98	842.4	1.499
308.15 K, w1 = 1	835.5	1.059
313.15 K, w1 = 0.2	980.4	1.509
313.15 K, w1 = 0.25	977.5	1.803
313.15 K, w1 = 0.3	973.6	2.161
313.15 K, w1 = 0.35	968.4	2.587
313.15 K, w1 = 0.4	964.1	3.016
313.15 K, w1 = 0.45	957.8	3.375
313.15 K, w1 = 0.5	953.4	3.851
313.15 K, w1 = 0.6	935.4	4.387
313.15 K, w1 = 0.7	915.8	4.853
313.15 K, w1 = 0.8	894.1	4.197
313.15 K, w1 = 0.9	865.3	2.909
313.15 K, w1 = 0.95	849.3	2.048
313.15 K, w1 = 0.96	843.6	1.835
313.15 K, w1 = 0.98	837.6	1.322
313.15 K, w1 = 1	830.7	0.955
318.15 K, w1 = 0.2	977.5	1.325
318.15 K, w1 = 0.25	974.3	1.562
318.15 K, w1 = 0.3	969.8	1.852
318.15 K, w1 = 0.35	964.1	2.194
318.15 K, w1 = 0.4	959.9	2.523
318.15 K, w1 = 0.45	953.6	2.808
318.15 K, w1 = 0.5	949	3.178
318.15 K, w1 = 0.6	930.7	3.577
318.15 K, w1 = 0.7	910.9	3.973
318.15 K, w1 = 0.8	889.4	3.577
318.15 K, w1 = 0.9	860.5	2.629
318.15 K, w1 = 0.95	844.4	1.921
318.15 K, w1 = 0.96	838.7	1.735
318.15 K, w1 = 0.98	832.6	1.2
318.15 K, w1 = 1	825.8	0.866
323.15 K, w1 = 0.2	974.2	1.179
323.15 K, w1 = 0.25	971	1.363
323.15 K, w1 = 0.3	966.2	1.598
323.15 K, w1 = 0.35	960.2	1.868
323.15 K, w1 = 0.4	955.5	2.129
323.15 K, w1 = 0.45	949.4	2.36
323.15 K, w1 = 0.5	944.5	2.652
323.15 K, w1 = 0.6	925.9	2.974
323.15 K, w1 = 0.7	906.8	3.301
323.15 K, w1 = 0.8	884.6	2.909
323.15 K, w1 = 0.9	855.9	1.929
323.15 K, w1 = 0.95	839.5	1.357
323.15 K, w1 = 0.96	833.8	1.192
323.15 K, w1 = 0.98	827.7	1.003
323.15 K, w1 = 1	820.9	0.788
328.15 K, w1 = 0.2	971.2	1.05
328.15 K, w1 = 0.25	967.6	1.201
328.15 K, w1 = 0.3	962.4	1.402
328.15 K, w1 = 0.35	955.6	1.62
328.15 K, w1 = 0.4	951.3	1.821
328.15 K, w1 = 0.45	944.2	2.008
328.15 K, w1 = 0.5	940.1	2.239
328.15 K, w1 = 0.6	921.2	2.486
328.15 K, w1 = 0.7	901.7	2.781
328.15 K, w1 = 0.8	880	2.471
328.15 K, w1 = 0.9	850.6	1.824
328.15 K, w1 = 0.95	834.6	1.348
328.15 K, w1 = 0.96	828.8	1.208
328.15 K, w1 = 0.98	822.8	0.983
328.15 K, w1 = 1	816	0.72
333.15 K, w1 = 0.2	967.8	0.934
333.15 K, w1 = 0.25	964.2	1.067
333.15 K, w1 = 0.3	958.4	1.236
333.15 K, w1 = 0.35	950.9	1.483
333.15 K, w1 = 0.4	946.7	1.577
333.15 K, w1 = 0.45	939.2	1.724
333.15 K, w1 = 0.5	936.1	1.911
333.15 K, w1 = 0.6	916	2.106
333.15 K, w1 = 0.7	897.1	2.374
333.15 K, w1 = 0.8	875.3	2.182
333.15 K, w1 = 0.9	845	1.687
333.15 K, w1 = 0.95	830.9	1.236
333.15 K, w1 = 0.96	823.8	1.102
333.15 K, w1 = 0.98	817.9	0.853
333.15 K, w1 = 1	811.1	0.662
